Experimental data reported in patent publication US20230256033A1, “PHYSIOLOGICALLY ACCEPTABLE COMPOSITIONS CONTAINING MICROORGANISMS OR MICROBIAL PRODUCTS” (FLAGSHIP PIONEERING INNOVATIONS VI, LLC, priority 2020, published 2023).

Tested on: LPS induced NFkB activity in THP1-Blue™ cells
Experiment: Suppression of LPS induced NFkB in human monocyte THP-1 reporter cells (THP1-BLUE NFkB, SEAP)
Format: cell-based
Conditions: IKK 16 at 2 μM; LPS 100 ng/mL 18 hours

O=C(c1ccc(Nc2nccc(-c3cc4ccccc4s3)n2)cc1)N1CCC(N2CCCC2)CC1 [IKK 16]
Suppression of LPS induced NFkB activity in THP1-Blue ™ cells (control for suppression): −80%
